Experimental data taken from US20100143310A1, “SPINAL NERVE REPAIR PROMOTING THERAPEUTICS CONTAINING GHRELIN OR ITS DERIVATIVES OR SUBSTANCES THAT ACT ON GHS-R1a AS AN ACTIVE INGREDIENT” (JAPAN AS REPRESENTED BY PRESIDENT OF NATIONAL …, priority 2006, published 2010).
Where no end group is shown, it is not given here. The star is where a group is joined. Octanoyl = CCCCCCCC(=O)*

Assays:
[1] = system: cultured spinal neuronal precursor cells; assay: BrdU incorporation into cultured spinal neuronal precursor cells (Cell Proliferation ELISA); assay type: cell-based, Wistar rat; conditions: for BrdU incorporation into cultured spinal neuronal precursor cells, Mean ± S.D.: incubation 12 hours, n=6, Control 100.0 ± 6.7; for concentration that increased the BrdU incorporation into the cells: 12 hours
Description: Embryos were extracted from a pregnant Wistar rat at day 17 by opening the abdomen under anesthesia. Spinal cords were collected from these embryos and subjected to papain digestion in Hank's balanced salt solution; as a result of subsequent mechanical separation by pipetting, a dispersion of embryonic spinal cord cells was obtained. After being filtered and centrifuged, the dispersed cells were suspended in a DMEM medium containing NaHCO3, 5% fetal bovine serum, penicillin (100 U/mL) and streptomycin (100 μg/mL), followed by plating onto laminin-coated 96-well multi-plates at 10^5 cells per well. After incubation for 4 days, 5-bromo-2'-deoxyuridine (BrdU) (10 μM) was added and incubation was conducted for 6 hours, followed by addition of rat ghrelin (0.003-300 nM) and subsequent incubation for 12 hours. After the end of incubation, the cells were recovered and using Cell Proliferation ELISA Kit (Roche Diagnostic GmbH, Mannheim, Germany), the amount of BrdU incorporation into the cells was measured to investigate the action of ghrelin on BrdU incorporation. Embryos were extracted from a pregnant Wistar rat at day 16 by opening the abdomen under anesthesia. Spinal cords were collected from these embryos and subjected to papain digestion in Hank's balanced salt solution; as a result of subsequent mechanical separation by pipetting, a dispersion of embryonic spinal cord cells was obtained. After being filtered and centrifuged, the dispersed cells were suspended in a DMEM medium containing NaHCO3, 5% fetal bovine serum, penicillin (100 U/mL) and streptomycin (100 μg/mL), followed by plating onto laminin-coated 96-well multi-plates at 10^5 cells per well. After incubation for 4 days, 5-bromo-2'-deoxyuridine (BrdU) (10 μM) was added and incubation was conducted for 6 hours; further, rat ghrelin, ghrelin(1-5)-Lys-NH2 (GSS(n-octanoyl)FLK-NH2), ghrelin(1-7)-Lys-NH2 ([…]) or MK-0677 having the structure indicated below was added in amounts of 0.03-3 nM and incubation was conducted for 12 hours before investigating the action of ghrelin on BrdU incorporation. After the end of incubation, the cells were recovered and using Cell Proliferation ELISA Kit (Roche Diagnostic GmbH, Mannheim, Germany), the amount of BrdU incorporation into the cells was measured to investigate the action of ghrelin on BrdU incorporation.

[2] = system: spinal neuron proliferating action of ghrelin; assay: Effect of L-type calcium channel blocker on the spinal neuron proliferating action of ghrelin; assay type: cell-based
[3] = system: spinal neuronal precursor cells; assay: Detection of BrdU positive cells with anti-BrdU antibody; assay type: cell-based, Wistar rat; conditions: FIG. 5, compared to the case where ghrelin was not allowed to act (physiological saline)
Description: (§1) Embryos were extracted from a pregnant Wistar rat at day 17 by opening the abdomen under anesthesia. Spinal cords were collected from these embryos and subjected to papain digestion in Hank's balanced salt solution; as a result of subsequent mechanical separation by pipetting, a dispersion of embryonic spinal cord cells was obtained. After being filtered and centrifuged, the dispersed cells were suspended in a DMEM medium containing NaHCO3, 5% fetal bovine serum, penicillin (100 U/mL) and streptomycin (100 μg/mL), followed by plating onto laminin-coated 96-well multi-plates at 10^5 cells per well. After incubation for 4 days, 5-bromo-2′-deoxyuridine (BrdU) (10 μM) was added and incubation was conducted for 6 hours, followed by addition of rat ghrelin (0.003-300 nM) and subsequent incubation for 12 hours.
After the end of incubation, the cells were fixed with methanol and glacial acetic acid, had their DNA denatured with 2 N HCl; thereafter, the BrdU incorporated into the cells was measured by detecting the BrdU positive cells using a rat anti-BrdU monoclonal antibody (1:1000, Abcam, Cambridge, UK) as a primary antibody, and also using Cy™ 3-conjugated donkey anti-rat IgG polyclonal antibody (1:1000, Jackson ImmunoResearch Laboratories, Inc., PA, USA) as a secondary antibody, in order to investigate the action of ghrelin for proliferating spinal precursor cells. […]

[4] = system: spinal neuronal precursor cells; assay: Double immunostaining for Nestin or Map2 and BrdU in proliferating spinal cord cells; assay type: cell-based, Wistar rat; conditions: FIG. 3-1 A and B; BrdU in nuclei of Nestin-stained cells, not in Map2-stained cells
Experimental: Double immunostaining was conducted in order to confirm the co-presence of the neuronal precursor cell marker Nestin or the neutron marker Map2 and GHS-R in proliferating cells (cells that were incorporating BrdU).
as §1, with “fetal” for “embryonic”, “well.” for “well. After incubation for 4 days, 5-bromo-2′-deoxyuridine (BrdU) (10 μM) was added and incubation was conducted for 6 hours, followed by addition of rat ghrelin (0.003-300 nM) and subsequent incubation for 12 hours.”
To the plates, 5-bromo-2′-deoxyuridine (BrdU) (10 μM) was added and incubation was conducted for 4 days to thereby incorporate the BrdU into the spinal cord cells. The spinal cord cells were fixed with methanol and glacial acetic acid at −20° C. for 20 minutes. After DNA denaturation with 2 M HCl, 2% normal goat serum in PBS was used to perform blocking at room temperature for 30 minutes. […]

[5] = system: rat models with injured spinal cord; assay: Grafting spinal neuronal precursor cells and locally administering ghrelin to rat models with injured spinal cord; assay type: in vivo, SD rats
Experimental: In accordance with the procedure described in Morino, T. et al, Neuroscience Research, 2003, vol. 46, pp 309-318, the grafting of spinal neuronal precursor cells and local administration of ghrelin to rat models with injured spinal cord were assessed. Male SD rats (8 to 9 weeks old) were anesthetized with pentobarbital and incised in the back to expose a vertebra ([…]). After excising the vertebral arch, a dental drill was used to open a window with a diameter of […], and a stainless steel needle with a silicone rubber fixed thereto was applied vertically, followed by loading of the top with a 20-g weight. Following a compression time of 30 minutes, a damaging drop equivalent to a weight of about 100 g was finally applied from above to construct models suffering a movement disorder in the lower limbs. The animals were divided into three groups: 1) a group under sham operation; 2) a control group with injured spinal cord; and 3) a group with injured spinal cord, treated by cell grafting, and locally administered with ghrelin. The group under sham operation received laminectomy but was simply sutured in the muscle and skin thereafter. After injuring the spinal cord, cultured spinal neuronal precursor cells (10^5 cells/25 μL) were grafted subdurally. Rat ghrelin was administered subdurally in an amount of 1 nmol together with the cells.
Twenty-four hours after the operation, the rats were transferred into a see-through cage and observed for the frequency of their standing up (by 3-minute observation). More specifically, the frequency of the rat standing up (in such a posture that it lifted the upper limbs and supported the body weight only with the lower limbs) was counted to assess the function of its hind limbs.

## CC(C)(N)C(=O)N[C@H](COCc1ccccc1)C(=O)N1CCC2(CC1)CN(S(C)(=O)=O)c1ccccc12 [MK-0677, reference compound]
[1]; 0.03 nM
  BrdU incorporation into cultured spinal neuronal precursor cells, Mean ± S.D.: 119.5 ± 4.6
[1]; 0.3 nM
  BrdU incorporation into cultured spinal neuronal precursor cells, Mean ± S.D.: 112.0 ± 13.9
[1]; 3 nM
  BrdU incorporation into cultured spinal neuronal precursor cells, Mean ± S.D.: 105.8 ± 13.0
[1]; Example 5, 0.03-3 nM tested
  concentration that increased the BrdU incorporation into the cells: 0.03 nM

## COc1ccc([C@@H]2Sc3ccccc3N(CCN(C)C)C(=O)[C@@H]2OC(C)=O)cc1 [diltiazem]
[2]
  suppression of the spinal neuron proliferating action of ghrelin: did not suppress

## GSS(n-octanoyl)FLK-NH2 (GSS(Octanoyl)FLK-NH2; N-terminus assumed; SMILES CCCCCCCC(=O)OC[C@H](NC(=O)[C@H](CO)NC(=O)CN)C(=O)N[C@@H](Cc1ccccc1)C(=O)N[C@@H](CC(C)C)C(=O)N[C@@H](CCCCN)C(N)=O) [Ghrelin (1-5)-Lys-NH2]
[1]; 0.03 nM
  BrdU incorporation into cultured spinal neuronal precursor cells, Mean ± S.D.: 106.9 ± 13.2
[1]; 0.3 nM
  BrdU incorporation into cultured spinal neuronal precursor cells, Mean ± S.D.: 114.2 ± 11.3
[1]; 3 nM
  BrdU incorporation into cultured spinal neuronal precursor cells, Mean ± S.D.: 103.5 ± 9.6

## GSS(n-octanoyl)FLSPK-NH2 (GSS(Octanoyl)FLSPK-NH2; N-terminus assumed; SMILES CCCCCCCC(=O)OC[C@H](NC(=O)[C@H](CO)NC(=O)CN)C(=O)N[C@@H](Cc1ccccc1)C(=O)N[C@@H](CC(C)C)C(=O)N[C@@H](CO)C(=O)N1CCC[C@H]1C(=O)N[C@@H](CCCCN)C(N)=O) [Ghrelin (1-7)-Lys-NH2]
[1]; 0.03 nM
  BrdU incorporation into cultured spinal neuronal precursor cells, Mean ± S.D.: 108.3 ± 11.6
[1]; 0.3 nM
  BrdU incorporation into cultured spinal neuronal precursor cells, Mean ± S.D.: 115.9 ± 14.1
[1]; 3 nM
  BrdU incorporation into cultured spinal neuronal precursor cells, Mean ± S.D.: 140.5 ± 41.9

## Ghrelin: rat ghrelin: 28-residue peptide, third serine acylated with n-octanoyl; endogenous ligand of GHS-R1a (SEQ ID NO:3 or 4) (GSS(Octanoyl)FLSPEHQKAQQRKESKKPPAKLQPR)
[1]; 0.03 nM
  BrdU incorporation into cultured spinal neuronal precursor cells, Mean ± S.D.: 112.5 ± 8.7
[1]; 0.3 nM
  BrdU incorporation into cultured spinal neuronal precursor cells, Mean ± S.D.: 112.0 ± 15.0
[1]; 3 nM
  BrdU incorporation into cultured spinal neuronal precursor cells, Mean ± S.D.: 120.4 ± 7.9
[1]; Example 4, FIG. 4, rat ghrelin 0.003-300 nM tested
  concentration that increased the BrdU incorporation into the cells: ≥ 3 nM
[3]
  BrdU positive cells detected: a large number of BrdU positive cells were detected
[4]
  cell type proliferated after treatment (BrdU with Nestin or Map2 double staining): has an action for proliferating spinal neuronal precursor cells
[5]; 24 hours after operation, rat ghrelin 1 nmol subdurally together with grafted cells (10^5 cells/25 μL), 3-minute observation, control group with injured spinal cord 1.3 ± 0.6
  frequency of a rat standing up per unit time, 24 hours after operation: 8.7 ± 4.2
[5]; combination of cell grafting and local administration of ghrelin
  function of hind limbs (frequency of standing up), result in words: led to a recovery in the frequency of standing up
[5]; initial, 3-minute observation
  frequency of a rat standing up per unit time, Initial: 11.7 ± 2.3
